# Experiments:
# Type in all cases: in vivo
# Phakopsora pachyrhizi = experiment: Asian soybean rust severity and defoliation, field trials in Paraguay; details: for defoliation: Yatytay site; for less Asian soybean rust leaf area damage than untreated control: two foliar applications from R1, 150 and 300 mL/Ha
# soybean [1] = experiment: Seed treatment of soybean, field yield trials; details: for Average Yield Bu/Ac / Average Change in Bu/Ac compared to Untreated Control: seed treatment on base ST; for Average Yield Bu/Ac: 1 variety, 1 location, four replicate plots
# soybean [2] = experiment: Soybean yield in trials infected with Phakopsora pachyrhizi and Cercospora kikuchii, Paraguay; details: for yield increase vs untreated control: FOX Fungicide where combined
# Excerpt: Beginning at the R1 stage of development, soybean plants received two foliar applications of the compositions described in Table 90 with an interval of 13-14 days between spray applications. Foliar treatments were applied to a single soy variety (which one? Same at all 3 sites) at the three sites, with 4 replicated plots (3×10 meters, 30 m2; with minimum of 6 rows per treatment). Disease assessments for trials that were naturally infected were scored for the severity of infection (0-100% of foliage affected) were scored for 10 plants within each plot for both Asian soybean rust caused by Phakopsora pachyrhizi and Cercospora leaf blight of soybean caused by Cercospora kikuchii at the R4-R5 stage of soy development (4-15 days after second foliar application) with guidance from Godoy et al (1997; Journal of plant diseases and protection 104:336-345). Percent phytotoxicity (0-100% of foliage affected) was also scored at the R4-R5 stage of soy development. Severity of infection and phytotoxicity were averaged across all four replicates per site (Total=12 replicates, 3 sites with 4 replicates each). Standard deviation for each treatment between the three sites was calculated.
# tomatoes = experiment: Foliar application to tomato, yield; details: for change in fruit weight per plant vs no spray control: Roma, Bt.4Q7Flg22 16.7 μM at 4.0 Fl. oz/Ac, Gm.RHPP 100 μM at 3.2 Fl. oz/Ac
# Experimental: Small scale plots were designed to simulate commercial growing conditions for tomatoes. Two hybrids of tomatoes, JetSetter (Trial 1) and Better Big Boy (Trial 2) were started as transplants in the greenhouse 42 to 56 days prior to planting in the raised field beds. Tomatoes were transplanted once soil temperatures three inches (7.6 cm) beneath the soil surface reach 60° F. (15.5° C.). Tomatoes were grown on raised beds covered with black plastic mulch. Plants were grown using drip irrigation and fertilizer applied following grower guidelines throughout the growing season to ensure optimum plant growth and yields. Small raised bed plots were designed to simulate the planting densities used by commercial growers that generally plant 2,600 to 5,800 plants per acre in single rows with 18 to 30 inches (46 to 76 cm) between plants in the row on 5- to 6.5-ft (1.5 to 2 m) centers.
# Foliar treatments of Bt.4Q7 Flg22 and Ec. […] Replicated trials were conducted at the University of Missouri (Columbia, Mo.) in July. Control plants were treated with equal volumes (use rates) of water. Effects of the foliar treatments on increasing yield in tomatoes were determined and reported as normalized to the water control treatment.
# In another experiment, tomato plants (hybrid: Better Boy), cultivated as described in the previous example, were treated with a formulation of Bt.4Q7 Flg22 at the first bloom stage. The formulation used consisted of the retro inverso D RI Bt.4Q7 Flg22 applied with 0.01% (v/v) non-ionic surfactant. […] At harvest, the yield was measured as the number of fruits per plant, the weight (grams) per fruit and the total yield (lbs/Ac). Table 29 reports the yield as a percent comparison or change to the non-treated control (water only) plants.
# Foliar application treatments of Gm.RHPP (SEQ ID NO: 600) was applied as an exogenous spray at the pre-bloom stage and used to increase yield in tomatoes. Two tomato hybrids (JetSetter and Better Big Boy) were planted in small scale plots as described in Example 12. […] Replicated trials were conducted at the US Midwest (Missouri) in July. The foliar treatment of Gm.RHPP on tomato plants was compared to the control (water applied at same use rate). Effects of the foliar treatments on increasing yield in tomatoes were determined and reported as normalized to the water control treatment and reported as the average percentage change in yield over the average control yield in Table 41.
# Small scale plots were designed to simulate commercial growing conditions for tomatoes. Tomato plants, variety Roma were started from transplants that were grown in a greenhouse for 45 days prior to planting into 2 raised field row beds with 2 feet (0.6 meters) between each transplant with an average of 30 plants per row bed. […] Tomatoes were grown on raised beds covered with black plastic mulch. Plants were grown using drip irrigation and fertilizer (80 lbs. or 36.3 kg) nitrogen; 100 lbs. (45.4 kg) phosphate, and 100 lbs. (45.4 kg) potash or potassium) applied following grower guidelines throughout the growing season to provide for optimum plant growth and yields. Small raised bed plots were designed to simulate the planting densities used by commercial growers that generally plant 2,600 to 5,800 plants per acre in single rows with 45.7 to 76.2 cm between plants in the row on 1.5- to 2-meter centers. [Orzolek et al., “Agricultural Alternatives: Tomato Production.” University Park: Penn State Extension, 2016].
# Foliar treatments using Bt.4Q7Flg22 and Gm.RHPP were applied on the tomato plants directly at early bloom (first flower) stage.
# Cercospora kikuchii = experiment: Cercospora leaf blight severity, field trials in Paraguay; details: two foliar applications from R1, 150 and 300 mL/Ha
# Experimental: FOX is a commercially available foliar fungicide in South America with limited efficacy for preventative and curative treatment of Asian soybean rust caused by Phakopsora pachyrhizi and Cercospora leaf blight of soybean caused by Cercospora kikuchii applied as a foliar spray following the recommendations on the specimen label at a use rate of 5.48 fluid ounces per acre (Fl. oz/Ac) (400 mL/hectare). Beginning at the R1 stage of development, soybean plants received two foliar applications of the compositions described in Table 90 with an interval of 13-14 days between spray applications. […] Disease assessments for trials that were naturally infected were scored for the severity of infection (0-100% of foliage affected) were scored for 10 plants within each plot for both Asian soybean rust caused by Phakopsora pachyrhizi and Cercospora leaf blight of soybean caused by Cercospora kikuchii at the R4-R5 stage of soy development (4-15 days after second foliar application) with guidance from Godoy et al (1997; Journal of plant diseases and protection 104:336-345). Percent phytotoxicity (0-100% of foliage affected) was also scored at the R4-R5 stage of soy development. […] Standard deviation for each treatment between the three sites was calculated. […]
# [3] = foliar 1 Fl. oz/Ac at early bloom, vs water control
# [4] = polypeptide 0.25 μM (cellobiose 1 mM where combined)
# [5] = polypeptide 1.0 μM (cellobiose 1 mM where combined)
# [6] = 1 Fl. oz/Ac, first bloom, hybrid Better Boy, formulation with 0.01% non-ionic surfactant
# [7] = 1 Fl. oz/Ac, foliar at early bloom
# [8] = 20 Fl. oz/Ac, foliar at early bloom
substance,measurement,setting,value
"GGIRAAPTGNER (Glycine max) [RHPP, Root Hair Promoting Peptide from Glycine max]",defoliation,"Phakopsora pachyrhizi; R7, 150 mL/Ha",96%
same,defoliation,"Phakopsora pachyrhizi; R7, 300 mL/Ha",70%
same,less Asian soybean rust leaf area damage than untreated control,Phakopsora pachyrhizi,10.5-11.3%
same,win rate,"soybean [1]; seed treatment, 11 sites",73%
same,yield increase,"soybean [1]; seed treatment, 11 sites",1.2 bu/Ac
same,win rate,"soybean [1]; third study, 12 locations",64%
same,yield benefit,"soybean [1]; third study, 12 locations",0.4 Bu/Ac
same,yield increase vs untreated control,soybean [2]; polypeptide 150 mL/Ha,294.2 kg/Ha
same,yield increase vs untreated control,soybean [2]; polypeptide 300 mL/Ha,506.8 kg/Ha
same,increase in tomato yield over control,"tomatoes; 1 Fl. oz/Ac, Better Big Boy",10%
same,increase in tomato yield over control,"tomatoes; 1 Fl. oz/Ac, Jetsetter hybrid",93%
same,"average increase in tomato yield over control, two hybrids","tomatoes; 1 Fl. oz/Ac, early bloom",52%
same,Percentage Change in Fruit Weight Compared to No-Spray Control,"tomatoes; Roma tomato, foliar at early bloom, Bt.4Q7Flg22 16.7 μM 4.0 Fl. oz/Ac, Gm.RHPP 100 μM 3.2 Fl. oz/Ac",+1.99%
same,Average Fruit Weight (grams) per Plant,"tomatoes; Roma tomato, foliar at early bloom, Bt.4Q7Flg22 16.7 μM 4.0 Fl. oz/Ac, Gm.RHPP 100 μM 3.2 Fl. oz/Ac, 2 harvests",1397.1 grams
same,change in fruit weight per plant vs no spray control,tomatoes,~2%
same,Average Trials 1 & 2 Percent Change Yield over Avg. Control,"tomatoes; foliar 1 Fl. oz/Ac at early bloom, both tomato hybrids",+52%
same,Trial 1: Percent Change in Yield over Avg. Control; Hybrid: Jetsetter,tomatoes; [3],+93%
same,Trial 2: Percent Change in Yield over Avg. Control; Hybrid: Better Big Boy,tomatoes; [3],+10%
same,less Cercospora leaf area damage than untreated control,Cercospora kikuchii,3.3-4.5%
Bt.4Q7Flg22: Flg22 polypeptide (22 amino acids) from flagellin of Bacillus thuringiensis strain 4Q7 (DRLSSGKRINSASDDAAGLAIA; listed as Bacillus thuringiensis),defoliation,"Phakopsora pachyrhizi; R7, 150 mL/Ha",70%
same,defoliation,"Phakopsora pachyrhizi; R7, 300 mL/Ha",60%
same,less Asian soybean rust leaf area damage than untreated control,Phakopsora pachyrhizi,12.4-13.0%
same,average yield increase over base seed treatment,"soybean [1]; 1.0 μM, 0.14 Fl. oz per unit, Columbia Mo., 4 replicate plots",5.11 Bu/Ac
same,Average Yield Bu/Ac,soybean [1]; [4],43.80 Bu/Ac
same,Average Yield Bu/Ac,soybean [1]; [5],46.22 Bu/Ac
same,Average Change in Bu/Ac compared to Untreated Control,soybean [1]; [4],+2.69 Bu/Ac
same,Average Change in Bu/Ac compared to Untreated Control,soybean [1]; [5],+5.11 Bu/Ac
same,win rate,"soybean [1]; third study, 12 locations",64%
same,yield benefit,"soybean [1]; third study, 12 locations",1.3 Bu/Ac
same,increase in yield (relative),"soybean [2]; Bt.4Q7Flg22 300 mL/Ha, FOX Fungicide at label rate",36.1%
same,yield increase vs untreated control,soybean [2]; polypeptide 150 mL/Ha,342.2 kg/Ha
same,yield increase vs untreated control,soybean [2]; polypeptide 300 mL/Ha,427.2 kg/Ha
same,Percent Change in Number of Fruits per Plant Compared to Control,tomatoes; [6],+12%
same,Percent Change in Weight/Fruit Compared to Control,tomatoes; [6],+9%
same,Percent Change in Yield (lbs/Ac) Compared to Control,tomatoes; [6],+21%
same,Average Trials 1 & 2 Percent Change Yield over Avg. Control,tomatoes; [7],+25%
same,Trial 1: Percent Change in Yield over Avg. Control; Hybrid: Jetsetter,tomatoes; [7],+49%
same,Trial 2: Percent Change in Yield over Avg. Control; Hybrid: Better Big Boy,tomatoes; [7],+1%
same,Average Trials 1 & 2 Percent Change Yield over Avg. Control,tomatoes; [8],+17%
same,Trial 1: Percent Change in Yield over Avg. Control; Hybrid: Jetsetter,tomatoes; [8],+22%
same,Trial 2: Percent Change in Yield over Avg. Control; Hybrid: Better Big Boy,tomatoes; [8],+12%
same,change in fruit weight per plant vs no spray control,tomatoes,8.61%
same,"increase in tomato yield over control, two hybrids averaged","tomatoes; early bloom, high rate 20 Fl. oz/Ac",17%
same,"increase in tomato yield over control, two hybrids averaged","tomatoes; early bloom, low rate 1 Fl. oz/Ac",25%
same,less Cercospora leaf area damage than untreated control,Cercospora kikuchii,2.8-3.5%

# From patent US12268727B2, “Bioactive polypeptides for improvements in plant protection, growth and productivity” (priority 2017, dated 2025)
